Biological target: T1, human Keap1 Kelch domain (Homo sapiens, UniProt Q14145)
T1 construct: human Keap1 Kelch domain (residue 321-609, UniProt Q14145); made in house; host or cells: Escherichia coli BL21 (DE3) pLysS, pRSET A vector
Experiment: Fluorescence polarization (FP) competition assay, Cy5-Nrf2 peptide probe
Assay type: binding
Settings: heterologous competition FP; Keap1 Kelch 14 nM, Cy5-Nrf2 probe 3 nM, 4% DMSO; mean ± SEM
Protocol: The binding affinities between the fluorescent peptide probe Cy5-Nrf2 (SEQ: Cy5-[…]-NH2) and the human Keap1 Kelch domain were determined as Kd values by saturation binding experiments, where increasing concentrations of Keap1 (0-300 nM) were added to a fixed concentration of peptide probe (3 nM). The assay was performed in a 1× HBSTET buffer (10 mM HEPES, 150 mM NaCl, 0.005% Tween20, 3 mM ethylenediaminetetraacetic acid (EDTA), 1 mM TCEP, pH=7.4) using black flat-bottom 384-well plates (Corning Life Sciences, NY), a volume of 30 μL/well, and a final DMSO concentration of 4% or 8%. The assay plate was spun down to ascertain proper mixing and removal of potential air bubbles and incubated for 10-15 min at room temperature before measuring the FP levels on a Safire2 plate reader (Tecan, Mannedorf, Switzerland). The g-factor was adjusted at each experiment so that a series of three blank wells containing probe but no Keap1 Kelch defined the baseline FP value. The Cy5-Nrf2 probe was measured at excitation/emission values of 635:670 nm. The FP values were fitted to the one-site specific binding equation: Y=Bmax×X/(Kd+X), with Bmax being the maximal FP value, X the Keap1 Kelch concentration, and Y the variable FP values. The Kd values were derived from the resulting binding saturation curve as being equal to the Keap1 Kelch concentration, where the curve is half-saturated.
The affinities between nonfluorescent small molecule Keap1 inhibitors and Keap1 Kelch were determined as Ki values in a heterologous competition FP binding assay. This was done by adding increasing concentration of test compound (2-fold serial dilutions, 12 concentrations tested per inhibition curve as duplicates) to a fixed concentration of Keap1 Kelch (14 nM) and the Cy5-Nrf2 peptide probe (3 nM) in the same HBSTET buffer and conditions as described above (final DMSO concentrations were 4%). FP values were fitted to the equation Y=Bottom+(Top−Bottom)/[1+(10^HillSlope×(log IC50−X))], where X is the logarithmic value of compound concentration. Hereby, the IC50 value was obtained, which together with the […] value and probe and Keap1 Kelch concentrations was used to calculate the theoretical competitive inhibition constant, the Ki value. 43 Ki values are shown as mean±SEM (standard error of mean) if based on two or more individual measurements.

T1 sequence (Q14145 321-609): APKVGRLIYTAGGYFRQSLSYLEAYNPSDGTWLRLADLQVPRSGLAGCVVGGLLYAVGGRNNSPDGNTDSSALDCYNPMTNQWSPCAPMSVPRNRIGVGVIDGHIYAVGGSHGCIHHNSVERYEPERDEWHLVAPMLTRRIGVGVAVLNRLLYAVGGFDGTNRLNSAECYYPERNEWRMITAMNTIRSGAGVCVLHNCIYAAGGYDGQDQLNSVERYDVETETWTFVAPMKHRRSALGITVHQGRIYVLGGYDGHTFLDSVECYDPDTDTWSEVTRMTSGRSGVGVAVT

Row | Compound | Ki
1 | Cc1cc2c(cc1C(CC(=O)O)c1ccc3ccc(OCC(=O)NC4CCCCC4)cc3c1)CCO2 (centres unmarked) [3t, 3-(7-(2-(cyclohexylamino)-2-oxoethoxy)naphthalen-2-yl)-3-(6-methyl-2,3-dihydrobenzofuran-5-yl)propanoic acid] | 0.032 ± 0.001 µM
2 | Cc1c(Cl)cccc1C(CC(=O)O)c1ccc2ccc(OCC(=O)NC3C=CCCC3)cc2c1 (centres unmarked) [4c, 3-(3-Chloro-2-methylphenyl)-3-(7-(2-(cyclohex-2-en-1-ylamino)-2-oxoethoxy)naphthalen-2-yl)propanoic acid] | 0.038 ± 0.006 µM
3 | O=C(O)CC(c1ccc2c(c1)CCO2)c1ccc2ccc(OCC(=O)NC3C=CCCC3)cc2c1 (centres unmarked) [4e, 3-(7-(2-(Cyclohex-2-en-1-ylamino)-2-oxoethoxy)naphthalen-2-yl)-3-(2,3-dihydrobenzofuran-5-yl)propanoic acid] | 0.027 ± 0.004 µM
4 | O=C(O)CC(c1ccc2c(c1)OC(F)(F)O2)c1ccc2ccc(OCC(=O)NC3C=CCCC3)cc2c1 (centres unmarked) [4f, 3-(7-(2-(Cyclohex-2-en-1-ylamino)-2-oxoethoxy)naphthalen-2-yl)-3-(2,2-difluorobenzo[d][1,3]dioxol-5-yl)propanoic acid] | 0.03 ± 0.002 µM
5 | Cc1ccc(Cl)cc1C(CC(=O)O)c1ccc2ccc(OCC(=O)NC3C=CCCC3)cc2c1 (centres unmarked) [4h, 3-(5-Chloro-2-methylphenyl)-3-(7-(2-(cyclohex-2-en-1-ylamino)-2-oxoethoxy)naphthalen-2-yl)propanoic acid] | 0.048 ± 0.005 µM
6 | O=C(O)CC(c1cccc(Cl)c1)c1ccc2ccc(OCC(=O)NC3C=CCCC3)cc2c1 (centres unmarked) [4j, 3-(3-chlorophenyl)-3-(7-(2-(cyclohex-2-en-1-ylamino)-2-oxoethoxy)naphthalen-2-yl)propanoic acid] | 0.206 ± 0.015 µM
7 | O=C(O)CC(c1ccc2c(c1)OCO2)c1ccc2ccc(OCC(=O)NC3CC=CCC3)cc2c1 (centres unmarked) [6a, 3-(Benzo[d][1,3]dioxol-5-yl)-3-(7-(2-(cyclohex-3-en-1-ylamino)-2-oxoethoxy)naphthalen-2-yl)propanoic acid] | 0.076 ± 0.009 µM
8 | O=C(O)CC(c1ccc2c(c1)OCO2)c1ccc2ccc(OCC(=O)NC3CCC(F)(F)CC3)cc2c1 (centres unmarked) [6b, 3-(benzo[d][1,3]dioxol-5-yl)-3-(7-(2-((4,4-difluorocyclohexyl)amino)-2-oxoethoxy)naphthalen-2-yl)propanoic acid] | 0.08 ± 0.01 µM
9 | CC(C)CNC(=O)COc1ccc2ccc(C(CC(=O)O)c3ccc4c(c3)OCO4)cc2c1 (centres unmarked) [6c, 3-(benzo[d][1,3]dioxol-5-yl)-3-(7-(2-(isobutylamino)-2-oxoethoxy)naphthalen-2-yl)propanoic acid] | 0.138 ± 0.024 µM
10 | O=C(O)CC(c1ccc2c(c1)OCO2)c1ccc2ccc(OCC(=O)NC3CCCC3)cc2c1 (centres unmarked) [6d, 3-(benzo[d][1,3]dioxol-5-yl)-3-(7-(2-(cyclopentylamino)-2-oxoethoxy)naphthalen-2-yl)propanoic acid] | 0.062 ± 0.005 µM
11 | O=C(O)CC(c1ccc2c(c1)OCO2)c1ccc2ccc(OCC(=O)NC34CC5CC(CC(C5)C3)C4)cc2c1 [6e, 3-(7-(2-(((1S,3s)-adamantan-1-yl)amino)-2-oxoethoxy)naphthalen-2-yl)-3-(benzo[d][1,3]dioxol-5-yl)propanoic acid] | 0.516 ± 0.115 µM
12 | CC1(NC(=O)COc2ccc3ccc(C(CC(=O)O)c4ccc5c(c4)OCO5)cc3c2)CCCCC1 (centres unmarked) [6f, 3-(benzo[d][1,3]dioxol-5-yl)-3-(7-(2-((1-methylcyclohexyl)amino)-2-oxoethoxy)naphthalen-2-yl)propanoic acid] | 0.477 ± 0.07 µM
13 | CC1(C)CCC(NC(=O)COc2ccc3ccc(C(CC(=O)O)c4ccc5c(c4)OCO5)cc3c2)CC1 (centres unmarked) [6g, 3-(benzo[d][1,3]dioxol-5-yl)-3-(7-(2-((4,4-dimethylcyclohexyl)amino)-2-oxoethoxy)naphthalen-2-yl)propanoic acid] | 0.056 ± 0.007 µM

Now those with a lower Ki, led by results:

Row | Ki | Compound
14 | 0.015 ± 0.001 µM | Cc1cc2c(cc1C(CC(=O)O)c1ccc3ccc(OCC(=O)NC4CCCCC4)cc3c1)OCCO2 (centres unmarked) [3q, 3-(7-(2-(cyclohexylamino)-2-oxoethoxy)naphthalen-2-yl)-3-(7-methyl-2,3-dihydrobenzo[b][1,4]dioxin-6-yl)propanoic acid]
15 | 0.007 ± 0.001 µM | Cc1cc2c(cc1C(CC(=O)O)c1ccc3ccc(OCC(=O)NC4CCCCC4)cc3c1)OC(F)(F)O2 (centres unmarked) [3r]
16 | 0.024 ± 0.001 µM | Cc1cc2occc2cc1C(CC(=O)O)c1ccc2ccc(OCC(=O)NC3CCCCC3)cc2c1 (centres unmarked) [3s, 3-(7-(2-(cyclohexylamino)-2-oxoethoxy)naphthalen-2-yl)-3-(6-methylbenzofuran-5-yl)propanoic acid]
17 | 0.025 ± 0.002 µM | O=C(O)CC(c1ccc2c(c1)OCO2)c1ccc2ccc(OCC(=O)NC3C=CCCC3)cc2c1 (centres unmarked) [4a, 3-(Benzo[d][1,3]dioxol-5-yl)-3-(7-(2-(cyclohex-2-en-1-ylamino)-2-oxoethoxy)naphthalen-2-yl)propanoic acid]
18 | 0.004 ± 0.001 µM | Cc1cc2c(cc1C(CC(=O)O)c1ccc3ccc(OCC(=O)NC4C=CCCC4)cc3c1)OCO2 (centres unmarked) [4b, 3-(7-(2-(Cyclohex-2-en-1-ylamino)-2-oxoethoxy)naphthalen-2-yl)-3-(6-methylbenzo[d][1,3]dioxol-5-yl)propanoic acid]
19 | 0.02 ± 0.002 µM | O=C(O)CC(c1ccc2c(c1)OCCO2)c1ccc2ccc(OCC(=O)NC3C=CCCC3)cc2c1 (centres unmarked) [4d, 3-(7-(2-(cyclohex-2-en-1-ylamino)-2-oxoethoxy)naphthalen-2-yl)-3-(2,3-dihydrobenzo[b][1,4]dioxin-6-yl)propanoic acid]
20 | 0.021 ± 0.002 µM | O=C(O)CC(c1ccc2ccc(OCC(=O)NC3C=CCCC3)cc2c1)c1ccc2occc2c1 (centres unmarked) [4g, 3-(Benzofuran-5-yl)-3-(7-(2-(cyclohex-2-en-1-ylamino)-2-oxoethoxy)naphthalen-2-yl)propanoic acid]
21 | 0.017 ± 0.003 µM | Cc1cc2c(cc1C(CC(=O)O)c1ccc3ccc(OCC(=O)NC4C=CCCC4)cc3c1)OCCO2 (centres unmarked) [4i, 3-(7-(2-(cyclohex-2-en-1-ylamino)-2-oxoethoxy)naphthalen-2-yl)-3-(7-methyl-2,3-dihydrobenzo[b][1,4]dioxin-6-yl)propanoic acid]
22 | 0.017 ± 0.004 µM | COc1ccc(C(CC(=O)O)c2ccc3ccc(OCC(=O)NC4C=CCCC4)cc3c2)c(C)c1 (centres unmarked) [4k, 3-(7-(2-(cyclohex-2-en-1-ylamino)-2-oxoethoxy)naphthalen-2-yl)-3-(4-methoxy-2-methylphenyl)propanoic acid]
23 | 0.016 ± 0.005 µM | Cc1cc2c(cc1C(CC(=O)O)c1ccc3ccc(OCC(=O)NC4C=CCCC4)cc3c1)OC(F)(F)O2 (centres unmarked) [4l, 3-(7-(2-(cyclohex-2-en-1-ylamino)-2-oxoethoxy)naphthalen-2-yl)-3-(2,2-difluoro-6-methylbenzo[d][1,3]dioxol-5-yl)propanoic acid]
24 | 0.018 ± 0.002 µM | Cc1cc2c(cc1C(CC(=O)O)c1ccc3ccc(OCC(=O)NC4C=CCCC4)cc3c1)CCO2 (centres unmarked) [4n, 3-(7-(2-(cyclohex-2-en-1-ylamino)-2-oxoethoxy)naphthalen-2-yl)-3-(6-methyl-2,3-dihydrobenzofuran-5-yl)propanoic acid]
25 | 0.02 ± 0.003 µM | O=C(O)CC(c1ccc2c(c1)OCO2)c1ccc2ccc(OCC(=O)N[C@H]3C[C@@H]4CC[C@H]3C4)cc2c1 (stereo partly drawn) [5a, 3-(benzo[d][1,3]dioxol-5-yl)-3-(7-(2-(((1S,2S,4R)-bicyclo[2.2.1]heptan-2-yl)amino)-2-oxoethoxy)naphthalen-2-yl)propanoic acid]
26 | 0.004 µM | O=C(O)CC(c1ccc2ccc(OCC(=O)N[C@H]3C[C@@H]4CC[C@H]3C4)cc2c1)c1cc2c(cc1Cl)OCO2 (stereo partly drawn) [5b, 3-(7-(2-(((1S,2S,4R)-bicyclo[2.2.1]heptan-2-yl)amino)-2-oxoethoxy)naphthalen-2-yl)-3-(6-chlorobenzo[d][1,3]dioxol-5-yl)propanoic acid]
27 | 0.007 µM | Cc1cc2c(cc1C(CC(=O)O)c1ccc3ccc(OCC(=O)N[C@H]4C[C@@H]5CC[C@H]4C5)cc3c1)OCO2 (stereo partly drawn) [5c, 3-(7-(2-(((1S,2S,4R)-bicyclo[2.2.1]heptan-2-yl)amino)-2-oxoethoxy)naphthalen-2-yl)-3-(6-methylbenzo[d][1,3]dioxol-5-yl)propanoic acid]
28 | ~0.001 µM | Cc1cc2c(cc1C(CC(=O)O)c1ccc3ccc(OCC(=O)N[C@H]4C[C@@H]5CC[C@H]4C5)cc3c1)OCCO2 (stereo partly drawn) [5d, 3-(7-(2-(((1S,2S,4R)-bicyclo[2.2.1]heptan-2-yl)amino)-2-oxoethoxy)naphthalen-2-yl)-3-(7-methyl-2,3-dihydrobenzo[b][1,4]dioxin-6-yl)propanoic acid]
29 | 0.019 ± 0.003 µM | O=C(O)CC(c1ccc2c(c1)OCO2)c1ccc2ccc(OCC(=O)N[C@@H]3C[C@@H]4CC[C@H]3C4)cc2c1 (stereo partly drawn) [6h, 3-(benzo[d][1,3]dioxol-5-yl)-3-(7-(2-(((1S,2R,4R)-bicyclo[2.2.1]heptan-2-yl)amino)-2-oxoethoxy)naphthalen-2-yl)propanoic acid]

— patent US20260193170A1 (University of Copenhagen, priority 2022, published 2026)
